Where no end group is shown, it is not given here.

The text below walks through data of patent publication US10005816B2, “Peptides and their use in food and beverage” (priority 2014, dated 2018).

The nature of the test: Sensory evaluation of peptide additive in coffee brew by five expert panelists (Example 4). The settings on record: 40 ppm additive in coffee brew; FOLGERS Classic Decaf roast and ground coffee; versus control brew without additive. As to the method: Coffee brews were prepared using a commercially available roast and ground coffee product (FOLGERS® brand Classic Decaf coffee) using a standard automatic drip coffee brewer (i.e., MR. COFFEE®). The brewing process was carried out as instructed on the coffee package. Each single peptide in Example 1 and peptide compositions in Examples 2 and 3 were mixed into to the coffee brew. Five expert panelists evaluated the effect of peptide additive on coffee flavor profile.
As to EELLPE [Peptide (Ie)], the “Sensory Evaluation” value was “Stronger than control, fuller”.

As for LACHLL [Peptide (Id)], the “Sensory Evaluation” value is “Strange non-coffee taste charcoal,”.

“Pro-Pro-Thr-Leu-Leu (PPTLL) [Peptide (Ic)]”: the “Sensory Evaluation” value is “Stronger than control, bitter”.

On to “Pro-Thr-Pro-Leu-Leu (PTPLL) [Peptide (Ia)]”, for which the “Sensory Evaluation” value is given as “Stronger than control, very bitter”.
